Data published in PubChem BioAssay AID1963854 (Molecular Pharmacology Branch, DTP, NCI, 2024).

Test system: 186277-243-T-J2-PDC complex spheroid viability
Test: Anticancer human tumor 186277-243-T-J2-PDC patient-derived colon adenocarcinoma cell line growth inhibition [POLQ]
Settings: for IC50: curve of first compound; for viability, T/C: stronger effect = lower value
Method in brief: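 Three-cell-type spheroids modelling solid tumor plus stroma served as the readout system; POL inhibitors were tested individually and in combination, concentration ranges set by clinical Cmax where known.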

[1] = second compound 0.0316 µM, first compound 0.00316 µM
[2] = second compound 0.0316 µM, first compound 0.01 µM
[3] = second compound 0.0316 µM, first compound 0.0316 µM
[4] = second compound 0.0316 µM, first compound 0.1 µM
[5] = second compound 0.1 µM, first compound 0.00316 µM
[6] = second compound 0.1 µM, first compound 0.01 µM
[7] = second compound 0.1 µM, first compound 0.0316 µM
[8] = second compound 0.1 µM, first compound 0.1 µM
[9] = second compound 0.316 µM, first compound 0.00316 µM
[10] = second compound 0.316 µM, first compound 0.01 µM
[11] = second compound 0.316 µM, first compound 0.0316 µM
[12] = second compound 0.316 µM, first compound 0.1 µM
[13] = second compound 1 µM, first compound 0.00316 µM
[14] = second compound 1 µM, first compound 0.01 µM
[15] = second compound 1 µM, first compound 0.0316 µM
[16] = second compound 1 µM, first compound 0.1 µM
[17] = second compound 3.16 µM, first compound 0.00316 µM
[18] = second compound 3.16 µM, first compound 0.01 µM
[19] = second compound 3.16 µM, first compound 0.0316 µM
[20] = second compound 3.16 µM, first compound 0.1 µM
[21] = second compound 10 µM, first compound 0.00316 µM
[22] = second compound 10 µM, first compound 0.01 µM
[23] = second compound 10 µM, first compound 0.0316 µM
[24] = second compound 10 µM, first compound 0.1 µM
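Also: spheroids exposed to compounds for seven days.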
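For viability, T/C in this document: 100% = DMSO vehicle control viability.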

CC(=O)O[C@H]1C(=O)[C@@]2(C)[C@H]([C@H](OC(=O)c3ccccc3)[C@]3(O)C[C@H](OC(=O)[C@H](O)[C@@H](NC(=O)c4ccccc4)c4ccccc4)C(C)=C1C3(C)C)[C@]1(OC(C)=O)CO[C@@H]1C[C@@H]2O + COC1C(OC(N)=O)C(O)C(Oc2ccc3c(O)c(NC(=O)c4ccc(O)c(CC=C(C)C)c4)c(=O)oc3c2C)OC1(C)C
IC50 (second compound 0.0316 µM): < 9.49 nM | IC50 (second compound 0.1 µM): < 9.49 nM | IC50 (second compound 0.316 µM): < 9.49 nM | IC50 (second compound 1 µM): < 9.49 nM | IC50 (second compound 3.16 µM): < 9.49 nM | IC50 (second compound 10 µM): < 9.49 nM | viability, T/C (second compound 0.0316 µM, first compound 0.00949 µM): 18.8% | viability, T/C (second compound 0.0316 µM, first compound 0.03 µM): 6.51% | viability, T/C (second compound 0.0316 µM, first compound 0.0949 µM): 3.77% | viability, T/C (second compound 0.0316 µM, first compound 0.3 µM): 2.87% | viability, T/C (second compound 0.0316 µM, first compound 0.949 µM): 2.1% | viability, T/C (second compound 0.0316 µM, first compound 3 µM): 2.04% | viability, T/C (second compound 0.1 µM, first compound 0.00949 µM): 17.1% | viability, T/C (second compound 0.1 µM, first compound 0.03 µM): 5.55% | viability, T/C (second compound 0.1 µM, first compound 0.0949 µM): 3.16% | viability, T/C (second compound 0.1 µM, first compound 0.3 µM): 3.36% | viability, T/C (second compound 0.1 µM, first compound 0.949 µM): 2.39% | viability, T/C (second compound 0.1 µM, first compound 3 µM): 2.52% | viability, T/C (second compound 0.316 µM, first compound 0.00949 µM): 20.7% | viability, T/C (second compound 0.316 µM, first compound 0.03 µM): 5.59% | viability, T/C (second compound 0.316 µM, first compound 0.0949 µM): 3.78% | viability, T/C (second compound 0.316 µM, first compound 0.3 µM): 2.55% | viability, T/C (second compound 0.316 µM, first compound 0.949 µM): 2.77% | viability, T/C (second compound 0.316 µM, first compound 3 µM): 2.42% | viability, T/C (second compound 1 µM, first compound 0.00949 µM): 19% | viability, T/C (second compound 1 µM, first compound 0.03 µM): 5.89% | viability, T/C (second compound 1 µM, first compound 0.0949 µM): 3.25% | viability, T/C (second compound 1 µM, first compound 0.3 µM): 3.12% | viability, T/C (second compound 1 µM, first compound 0.949 µM): 2.59% | viability, T/C (second compound 1 µM, first compound 3 µM): 2.05% | viability, T/C (second compound 3.16 µM, first compound 0.00949 µM): 17% | viability, T/C (second compound 3.16 µM, first compound 0.03 µM): 6.12% | viability, T/C (second compound 3.16 µM, first compound 0.0949 µM): 3.2% | viability, T/C (second compound 3.16 µM, first compound 0.3 µM): 2.83% | viability, T/C (second compound 3.16 µM, first compound 0.949 µM): 3.06% | viability, T/C (second compound 3.16 µM, first compound 3 µM): 2.28% | viability, T/C (second compound 10 µM, first compound 0.00949 µM): 19.6% | viability, T/C (second compound 10 µM, first compound 0.03 µM): 5.72% | viability, T/C (second compound 10 µM, first compound 0.0949 µM): 3.65% | viability, T/C (second compound 10 µM, first compound 0.3 µM): 2.92% | viability, T/C (second compound 10 µM, first compound 0.949 µM): 2.88% | viability, T/C (second compound 10 µM, first compound 3 µM): 2.55%

C=CCn1c(=O)c2cnc(Nc3ccc(N4CCN(C)CC4)cc3)nc2n1-c1cccc(C(C)(C)O)n1 + COC1C(OC(N)=O)C(O)C(Oc2ccc3c(O)c(NC(=O)c4ccc(O)c(CC=C(C)C)c4)c(=O)oc3c2C)OC1(C)C
IC50 (second compound 0.0316 µM): 189 nM | IC50 (second compound 0.1 µM): 185 nM | IC50 (second compound 0.316 µM): 190 nM | IC50 (second compound 1 µM): 182 nM | IC50 (second compound 3.16 µM): 177 nM | IC50 (second compound 10 µM): 178 nM | viability, T/C [1]: 100% | viability, T/C [2]: 88.2% | viability, T/C [3]: 109% | viability, T/C [4]: 93.4% | viability, T/C (second compound 0.0316 µM, first compound 0.316 µM): 14.8% | viability, T/C (second compound 0.0316 µM, first compound 1 µM): 7.82% | viability, T/C [5]: 83.8% | viability, T/C [6]: 97.8% | viability, T/C [7]: 107% | viability, T/C [8]: 91.3% | viability, T/C (second compound 0.1 µM, first compound 0.316 µM): 13.7% | viability, T/C (second compound 0.1 µM, first compound 1 µM): 7.76% | viability, T/C [9]: 93.4% | viability, T/C [10]: 87.7% | viability, T/C [11]: 99.2% | viability, T/C [12]: 100% | viability, T/C (second compound 0.316 µM, first compound 0.316 µM): 14.1% | viability, T/C (second compound 0.316 µM, first compound 1 µM): 8.59% | viability, T/C [13]: 103% | viability, T/C [14]: 104% | viability, T/C [15]: 104% | viability, T/C [16]: 91.8% | viability, T/C (second compound 1 µM, first compound 0.316 µM): 11.1% | viability, T/C (second compound 1 µM, first compound 1 µM): 8.27% | viability, T/C [17]: 104% | viability, T/C [18]: 96.2% | viability, T/C [19]: 109% | viability, T/C [20]: 85.8% | viability, T/C (second compound 3.16 µM, first compound 0.316 µM): 13.5% | viability, T/C (second compound 3.16 µM, first compound 1 µM): 7.48% | viability, T/C [21]: 104% | viability, T/C [22]: 110% | viability, T/C [23]: 95.2% | viability, T/C [24]: 87.6% | viability, T/C (second compound 10 µM, first compound 0.316 µM): 12% | viability, T/C (second compound 10 µM, first compound 1 µM): 7.75%

CC[C@@]1(O)C(=O)OCc2c1cc1n(c2=O)Cc2cc3c(CN(C)C)c(O)ccc3nc2-1 + Cc1cccc(N(C)C(=O)C2C(O)CCN2c2nc(C)cc(C(F)(F)F)c2C#N)c1
IC50 (second compound 0.0316 µM): 93.3 nM | IC50 (second compound 0.1 µM): 98.4 nM | IC50 (second compound 0.316 µM): 93.6 nM | IC50 (second compound 1 µM): 86 nM | IC50 (second compound 3.16 µM): 84.6 nM | IC50 (second compound 10 µM): 61.6 nM | viability, T/C (second compound 0.0316 µM, first compound 0.000316 µM): 112% | viability, T/C (second compound 0.0316 µM, first compound 0.001 µM): 83.4% | viability, T/C [1]: 90.6% | viability, T/C [2]: 104% | viability, T/C [3]: 67% | viability, T/C [4]: 48.9% | viability, T/C (second compound 0.1 µM, first compound 0.000316 µM): 102% | viability, T/C (second compound 0.1 µM, first compound 0.001 µM): 96.7% | viability, T/C [5]: 96% | viability, T/C [6]: 103% | viability, T/C [7]: 74.8% | viability, T/C [8]: 49.6% | viability, T/C (second compound 0.316 µM, first compound 0.000316 µM): 83.1% | viability, T/C (second compound 0.316 µM, first compound 0.001 µM): 106% | viability, T/C [9]: 99.4% | viability, T/C [10]: 118% | viability, T/C [11]: 71.7% | viability, T/C [12]: 48.7% | viability, T/C (second compound 1 µM, first compound 0.000316 µM): 105% | viability, T/C (second compound 1 µM, first compound 0.001 µM): 96.9% | viability, T/C [13]: 96.7% | viability, T/C [14]: 114% | viability, T/C [15]: 74% | viability, T/C [16]: 46.4% | viability, T/C (second compound 3.16 µM, first compound 0.000316 µM): 102% | viability, T/C (second compound 3.16 µM, first compound 0.001 µM): 100% | viability, T/C [17]: 96.2% | viability, T/C [18]: 115% | viability, T/C [19]: 73.9% | viability, T/C [20]: 45.9% | viability, T/C (second compound 10 µM, first compound 0.000316 µM): 115% | viability, T/C (second compound 10 µM, first compound 0.001 µM): 96.2% | viability, T/C [21]: 104% | viability, T/C [22]: 87.5% | viability, T/C [23]: 59.8% | viability, T/C [24]: 42.6%
